The target of the assay is T1, FLT3 (Homo sapiens, UniProt P36888).
T1 construct: purchased Invitrogen/Life Technologies
T1 sequence (P36888 27-993): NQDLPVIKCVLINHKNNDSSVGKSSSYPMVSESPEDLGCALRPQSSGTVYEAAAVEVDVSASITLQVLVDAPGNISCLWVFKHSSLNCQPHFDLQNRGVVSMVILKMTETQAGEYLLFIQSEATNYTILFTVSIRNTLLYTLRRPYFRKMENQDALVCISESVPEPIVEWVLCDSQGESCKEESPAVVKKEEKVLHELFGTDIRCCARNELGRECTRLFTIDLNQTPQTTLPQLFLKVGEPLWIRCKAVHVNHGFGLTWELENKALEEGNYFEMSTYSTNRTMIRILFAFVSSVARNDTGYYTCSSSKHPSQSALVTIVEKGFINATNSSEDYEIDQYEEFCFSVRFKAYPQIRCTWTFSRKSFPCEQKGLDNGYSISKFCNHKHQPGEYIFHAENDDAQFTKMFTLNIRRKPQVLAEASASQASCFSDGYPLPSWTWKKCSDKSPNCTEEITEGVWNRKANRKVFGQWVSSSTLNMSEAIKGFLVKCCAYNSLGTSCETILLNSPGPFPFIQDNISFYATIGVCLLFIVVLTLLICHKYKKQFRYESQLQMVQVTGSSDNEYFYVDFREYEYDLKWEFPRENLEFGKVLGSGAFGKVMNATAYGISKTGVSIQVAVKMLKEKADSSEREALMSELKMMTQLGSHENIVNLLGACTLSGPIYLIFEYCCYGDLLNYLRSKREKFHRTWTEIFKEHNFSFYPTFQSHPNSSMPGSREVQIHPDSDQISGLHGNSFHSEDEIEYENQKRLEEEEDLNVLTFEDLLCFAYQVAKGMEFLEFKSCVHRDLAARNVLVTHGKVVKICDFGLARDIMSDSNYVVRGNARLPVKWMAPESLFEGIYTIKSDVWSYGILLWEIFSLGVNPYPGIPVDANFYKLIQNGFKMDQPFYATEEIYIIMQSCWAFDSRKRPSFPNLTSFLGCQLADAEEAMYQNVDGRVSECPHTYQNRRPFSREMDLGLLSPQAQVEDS
Description: Z'-LYTE kinase assay. Format: biochemical. How it is done: The Z’-LYTE® technology, which relies on FRET (Fluorescence Resonance Energy Transfer) from Invitrogen/Life Technologies, was employed for this evaluation for all kinases except VEGFR-2. The VEGFR-2 kinase assay was conducted in a 96-well streptavidin-coated plate using a recombinant human VEGFR-2/KDR ELISA kit, following the manufacturer’s instructions. […] Statistical significance was assessed using one-way analysis of variance (ANOVA), followed by the Dunnett test; data are represented as means ± SD.

Molecules are shown by their SMILES.

For orientation: inhibition means the change of the read-out against control, counted positive when it falls. The IC50 is the midpoint of a concentration-inhibition curve.

Take `O=C1Nc2cc(Cl)ccc2C1=Cc1ccc(OCc2cccnc2)cc1` (mixture of isomers) [Compound 5l, (E/Z)-6-Chloro-3-[4-(pyridin-3-ylmethoxy)benzylidene] indolin-2-one]: the inhibition at 10 µM (10 µM, FLT3) is 92.6%. The same molecule showed a 50% inhibitory concentration (IC50) (three separate experiments ± SD) of 36.2 ± 1.07 nM.
